Like-named read-outs stand apart in the source and are kept apart here.
Test system: J774.A1 macrophages
Test: TNF-α production in J774.A1 macrophages (ELISA)
Assay type: cell-based, murine
Settings: for Determined class of macrophage TNF-α inducing activity: experimentally determined class; for fold induction at 50 µM: Mus musculus, J774.A1, 24 h
[1] = relative fold of activation compared to vehicle (DMSO) control for 50 μM compound, N.A. = no activity was observed, read-out: TNF-α production
[2] = 50 μM compound, above response to vehicle (DMSO) control, Table 5 numbering, N.A. = inactive, read-out: FI (fold-increase of macrophage TNF-α production)

4-fluoro-benzoic acid [5-(3-trifluoromethyl-phenyl)-2-furyl]methylene-hydrazide [Compound 2]
FI (fold-increase of macrophage TNF-α production) (50 μM compound, above response to vehicle (DMSO) control, Table 5 numbering, N.A. = inactive): 60 fold-increase | Determined class of macrophage TNF-α inducing activity: Active

CCOc1cc(/C=N\NC(=O)c2ccc3c(c2)OCO3)ccc1OC(=O)c1ccc(Br)cc1 [Compound 11]
fold induction at 50 µM [1]: < 5

O=C(N/N=C/c1cc(Br)cc(Br)c1OC(=O)c1ccccc1)c1ccc2c(c1)OCO2 [Compound 12]
fold induction at 50 µM [1]: < 5

O=C(N/N=C/c1ccc(-c2cccc(C(F)(F)F)c2)o1)c1cccc([N+](=O)[O-])c1 [Compound 13]
fold induction at 50 µM [1]: < 5

O=C(N/N=C/c1ccc(-c2ccccc2Cl)o1)c1ccc(Cl)cc1Cl [Compound 14]
fold induction at 50 µM [1]: < 5

O=C(N/N=C/c1ccc(-c2cccc(C(F)(F)F)c2)o1)c1cc(I)ccc1Cl [Compound 15]
fold induction at 50 µM [1]: < 5

O=C(N/N=C/c1cc(Br)c(Br)o1)c1ccc2c(c1)OCO2 [Compound 16]
fold induction at 50 µM [1]: < 5

Nc1ccc(C(=O)N/N=C/c2ccc(-c3ccc([N+](=O)[O-])cc3Cl)o2)cc1 [Compound 22]
fold induction at 50 µM [1]: < 2

O=C(N/N=C/c1ccc([N+](=O)[O-])o1)c1cccc([N+](=O)[O-])c1 [Compound 23]
fold induction at 50 µM (read-out: TNF-α production): < 2

O=C(N/N=C/c1ccc(-c2ccc(Cl)cc2Cl)o1)c1ccc2c(c1)OCO2 [Compound 24]
fold induction at 50 µM [1]: < 2

Cc1ccc(-c2ccc(/C=N/NC(=O)c3ccncc3)o2)cc1Cl [Compound 51]
fold induction at 50 µM [2]: 50 | Determined class of macrophage TNF-α inducing activity: Active

O=C(N/N=C/c1ccc(-c2cccc(C(F)(F)F)c2)o1)c1ccc(Br)cc1 [Compound 52]
fold induction at 50 µM [2]: 35 | Determined class of macrophage TNF-α inducing activity: Active

CN(C)c1ccc(/C=N\NC(=O)c2ccc([N+](=O)[O-])cc2)cc1 [Compound 53]
fold induction at 50 µM [2]: 25 | Determined class of macrophage TNF-α inducing activity: Active

COc1cc(/C=N\NC(=O)c2ccc3c(c2)OCO3)ccc1OCc1ccccc1 [Compound 54]
fold induction at 50 µM [2]: 7 | Determined class of macrophage TNF-α inducing activity: Active

O=C(N/N=C/c1ccc(-c2ccc(Cl)c(Cl)c2)o1)c1ccc2c(c1)OCO2 [Compound 55]
fold induction at 50 µM [2]: < 5 | Determined class of macrophage TNF-α inducing activity: Active

CCOc1cc(/C=N\NC(=O)c2ccc3c(c2)OCO3)ccc1OC(=O)c1ccc(Br)cc1 [Compound 56]
fold induction at 50 µM [2]: < 5 | Determined class of macrophage TNF-α inducing activity: Active

COc1ccc(-c2ccc(/C=N/NC(=O)c3ccc([N+](=O)[O-])cc3)o2)cc1Cl [Compound 57]
fold induction at 50 µM [2]: < 5 | Determined class of macrophage TNF-α inducing activity: Active

O=C(N/N=C/c1cc(Br)c(Br)o1)c1ccc2c(c1)OCO2 [Compound 58]
fold induction at 50 µM [2]: < 5 | Determined class of macrophage TNF-α inducing activity: Active

O=C(/C=C/c1ccco1)Oc1cccc(/C=N/NC(=O)c2ccc3c(c2)OCO3)c1 [Compound 59]
Determined class of macrophage TNF-α inducing activity: NA (inactive derivatives were placed in the nonactive group labeled “NA”)

COc1cc(/C=N\NC(=O)c2cccc(C)c2O)ccc1OCc1ccccc1 [Compound 60]
Determined class of macrophage TNF-α inducing activity: NA (inactive derivatives were placed in the nonactive group labeled “NA”)

COc1ccc(C(=O)N/N=C\c2ccc(N(C)C)cc2)cc1 [Compound 61]
Determined class of macrophage TNF-α inducing activity: NA (inactive derivatives were placed in the nonactive group labeled “NA”)

O=C(N/N=C/c1cc(Br)cc(I)c1O)c1ccc2c(c1)OCCO2 [Compound 62]
Determined class of macrophage TNF-α inducing activity: NA (inactive derivatives were placed in the nonactive group labeled “NA”)

O=C(N/N=C/c1cc(/N=N\c2cccc(C(F)(F)F)c2)ccc1O)c1ccc2c(c1)OCO2 [Compound 63]
Determined class of macrophage TNF-α inducing activity: NA (inactive derivatives were placed in the nonactive group labeled “NA”)

O=C(N/N=C1\C(=O)N(Cc2cccc3ccccc23)c2ccccc21)c1ccc2c(c1)OCO2 [Compound 64]
Determined class of macrophage TNF-α inducing activity: NA (inactive derivatives were placed in the nonactive group labeled “NA”)

O=C(N/N=C/c1cc(Br)c(Br)o1)c1ccc2c(c1)OCCO2 [Compound 65]
Determined class of macrophage TNF-α inducing activity: NA (inactive derivatives were placed in the nonactive group labeled “NA”)

CN(C)c1ccc(/C=N\NC(=O)c2cccc(F)c2)cc1 [Compound 66]
Determined class of macrophage TNF-α inducing activity: NA (inactive derivatives were placed in the nonactive group labeled “NA”)

CN(C)c1ccc(/C=N/NC(=O)c2ccc3c(c2)OCO3)cc1 [Compound 67]
Determined class of macrophage TNF-α inducing activity: NA (inactive derivatives were placed in the nonactive group labeled “NA”)

O=C(N/N=C/c1c(O)ccc2ccccc12)c1ccc2c(c1)OCO2 [Compound 68]
Determined class of macrophage TNF-α inducing activity: NA (inactive derivatives were placed in the nonactive group labeled “NA”)

COc1ccc(/C=N/NC(=O)c2ccc3c(c2)OCO3)c(OC)c1 [Compound 69]
Determined class of macrophage TNF-α inducing activity: NA (inactive derivatives were placed in the nonactive group labeled “NA”)

COc1cc(/C=N\NC(=O)c2ccc3c(c2)OCO3)ccc1OC(=O)c1ccco1 [Compound 70]
Determined class of macrophage TNF-α inducing activity: NA (inactive derivatives were placed in the nonactive group labeled “NA”)

O=C(/C=C\c1ccco1)Oc1ccc(/C=N\NC(=O)c2ccc3c(c2)OCO3)cc1 [Compound 71]
Determined class of macrophage TNF-α inducing activity: NA (inactive derivatives were placed in the nonactive group labeled “NA”)

O=C(O)COc1ccccc1/C=N/NC(=O)c1ccc2c(c1)OCO2 [Compound 72]
Determined class of macrophage TNF-α inducing activity: NA (inactive derivatives were placed in the nonactive group labeled “NA”)

CN(C)c1ccc(/C=N\NC(=O)c2ccccc2O)cc1 [Compound 73]
Determined class of macrophage TNF-α inducing activity: NA (inactive derivatives were placed in the nonactive group labeled “NA”)

O=C(N/N=C/c1cc(/N=N\c2cccc3ccccc23)ccc1O)c1ccc2c(c1)OCO2 [Compound 74]
Determined class of macrophage TNF-α inducing activity: NA (inactive derivatives were placed in the nonactive group labeled “NA”)

C/C(=N\NC(=O)c1ccc2c(c1)OCO2)c1cccc([N+](=O)[O-])c1 [Compound 75]
Determined class of macrophage TNF-α inducing activity: NA (inactive derivatives were placed in the nonactive group labeled “NA”)

CC(C)N1C(=O)/C(=N\NC(=O)c2ccc3c(c2)OCO3)c2ccccc21 [Compound 76]
Determined class of macrophage TNF-α inducing activity: NA (inactive derivatives were placed in the nonactive group labeled “NA”)

CCN1C(=O)/C(=N\NC(=O)c2ccc3c(c2)OCO3)c2ccccc21 [Compound 77]
Determined class of macrophage TNF-α inducing activity: NA (inactive derivatives were placed in the nonactive group labeled “NA”)

From patent US20100035932A1, “NOVEL FORMYL PEPTIDE RECEPTOR LIKE 1 AGONISTS THAT INDUCE MACROPHAGE TUMOR NECROSIS FACTOR ALPHA AND COMPUTATIONAL STRUCTURE-ACTIVITY RELATIONSHIP ANALYSIS OF THEREOF” (priority 2008, published 2010)
